What was measured:
Type in all cases: biochemical
[1] = molecular target: T1, Lyn (Homo sapiens, UniProt P07948); assay: Kinase inhibition assay (33P transfer), Lyn; settings: Table 6, Lyn-1 kinase inhibition class
T1 construct: Kinases are expressed as either kinase domains or full length constructs; made in house
How it was run: (§1)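 Steps: coat wells with poly(Glu,Tyr) 4:1 or poly(Arg,Ser) 3:1; add purified kinase, [33P]ATP and inhibitor; incubate; wash with 0.5% phosphoric acid; add liquid scintillant; count. IC50 corresponds to half-maximal reduction of bound 33P.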

[2] = molecular target: T2, Fyn (Homo sapiens, UniProt P06241); assay: Kinase inhibition assay (33P transfer), Fyn; settings: read-out: Fyn-1
T2 construct: Kinases are expressed as either kinase domains or full length constructs; made in house
How it was run: as §1

[3] = molecular target: T3, Itk (Homo sapiens, UniProt Q08881); assay: Kinase inhibition assay (33P transfer), Itk; settings: Table 3; read-out: Itk-1
T3 construct: Kinases are expressed as either kinase domains or full length constructs; made in house
T3 sequence (Q08881 1-620): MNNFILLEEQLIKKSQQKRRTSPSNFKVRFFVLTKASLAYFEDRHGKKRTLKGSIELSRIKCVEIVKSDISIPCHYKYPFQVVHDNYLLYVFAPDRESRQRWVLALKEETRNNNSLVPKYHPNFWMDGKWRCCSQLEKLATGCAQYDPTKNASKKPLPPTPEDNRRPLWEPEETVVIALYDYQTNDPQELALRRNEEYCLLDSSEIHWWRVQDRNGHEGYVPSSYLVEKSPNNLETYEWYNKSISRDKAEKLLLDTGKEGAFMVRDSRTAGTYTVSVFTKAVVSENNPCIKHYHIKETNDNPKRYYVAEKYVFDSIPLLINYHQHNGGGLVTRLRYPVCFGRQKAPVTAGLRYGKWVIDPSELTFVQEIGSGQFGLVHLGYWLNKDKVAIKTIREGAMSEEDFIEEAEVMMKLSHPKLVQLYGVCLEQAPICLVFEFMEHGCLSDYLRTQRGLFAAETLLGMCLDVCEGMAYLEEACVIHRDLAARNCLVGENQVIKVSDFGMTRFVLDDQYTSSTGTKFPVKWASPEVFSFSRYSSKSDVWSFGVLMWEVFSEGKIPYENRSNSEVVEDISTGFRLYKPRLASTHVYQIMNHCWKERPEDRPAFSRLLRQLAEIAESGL
How it was run: as §1

[4] = molecular target: T4, Kdr (Homo sapiens, UniProt P35968); assay: Kinase inhibition assay (33P transfer), Kdr; settings: Table 3; read-out: KDR-1
T4 construct: Kinases are expressed as either kinase domains or full length constructs; made in house
How it was run: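 Measured by scintillation: radiolabelled phosphate added by tagged recombinant kinases to poly(Glu,Tyr) 4:1 or poly(Arg,Ser) 3:1 attached to microtiter wells, counted once free label was washed away with 0.5% phosphoric acid.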

[5] = molecular target: T5, Flt-1 (Homo sapiens, UniProt P17948); assay: Kinase inhibition assay (33P transfer), Flt-1
T5 construct: Kinases are expressed as either kinase domains or full length constructs; made in house
How it was run: as §1

[6] = molecular target: T6, Tek (Homo sapiens, UniProt Q02763); assay: Kinase inhibition assay (33P transfer), Tek; settings: read-out: Tek-1
T6 construct: Kinases are expressed as either kinase domains or full length constructs; made in house
How it was run: as §1

[7] = molecular target: T7, c-Met (Homo sapiens, UniProt P08581); assay: Kinase inhibition assay (33P transfer), c-Met; settings: Table 2, kinase inhibition class; read-out: Met-1
T7 construct: Kinases are expressed as either kinase domains or full length constructs; made in house
How it was run: as §1

[8] = molecular target: T8, PDGFRB (Homo sapiens, UniProt P09619); assay: Kinase inhibition assay (33P transfer), PDGFRB; settings: read-out: PDGFRB-1
T8 construct: Kinases are expressed as either kinase domains or full length constructs; made in house

[9] = molecular target: T9, Hck-1 (Homo sapiens, UniProt P08631); assay: Kinase inhibition assay (33P transfer), Hck; settings: Table 6, Hck-1 kinase inhibition class
T9 construct: Kinases are expressed as either kinase domains or full length constructs; made in house

[10] = molecular target: T10, Ret-1 (Homo sapiens, UniProt P07949); assay: Kinase inhibition assay (33P transfer), Ret; settings: Table 6, Ret-1 kinase inhibition class
T10 construct: Kinases are expressed as either kinase domains or full length constructs; made in house

[11] = molecular target: T11, FGFR1 (Homo sapiens, UniProt P11362); assay: Kinase inhibition assay (33P transfer), FGFR1; settings: read-out: FGFR1-1
T11 construct: Kinases are expressed as either kinase domains or full length constructs; made in house

[12] = molecular target: T12, ErbB2 (Homo sapiens, UniProt P04626); assay: Kinase inhibition assay (33P transfer), ErbB2; settings: read-out: ErbB2-2
T12 construct: Kinases are expressed as either kinase domains or full length constructs; made in house
How it was run: as §1

T1 sequence (P07948 whole entry, species assumed, the tested form may be a part): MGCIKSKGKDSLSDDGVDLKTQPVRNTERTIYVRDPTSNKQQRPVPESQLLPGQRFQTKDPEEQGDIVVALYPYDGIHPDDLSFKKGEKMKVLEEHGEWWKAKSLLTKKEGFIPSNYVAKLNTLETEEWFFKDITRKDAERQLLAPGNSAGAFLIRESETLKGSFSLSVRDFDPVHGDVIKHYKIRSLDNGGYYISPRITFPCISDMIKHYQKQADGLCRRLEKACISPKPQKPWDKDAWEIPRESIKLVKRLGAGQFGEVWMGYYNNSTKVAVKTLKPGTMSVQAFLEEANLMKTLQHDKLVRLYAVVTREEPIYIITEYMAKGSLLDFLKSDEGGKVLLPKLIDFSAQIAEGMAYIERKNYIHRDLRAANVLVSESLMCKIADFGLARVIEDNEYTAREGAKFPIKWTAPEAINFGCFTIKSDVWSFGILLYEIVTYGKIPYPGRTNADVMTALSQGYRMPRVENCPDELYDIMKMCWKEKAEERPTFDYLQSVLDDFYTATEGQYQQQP
T12 sequence (P04626 23-1255, species assumed): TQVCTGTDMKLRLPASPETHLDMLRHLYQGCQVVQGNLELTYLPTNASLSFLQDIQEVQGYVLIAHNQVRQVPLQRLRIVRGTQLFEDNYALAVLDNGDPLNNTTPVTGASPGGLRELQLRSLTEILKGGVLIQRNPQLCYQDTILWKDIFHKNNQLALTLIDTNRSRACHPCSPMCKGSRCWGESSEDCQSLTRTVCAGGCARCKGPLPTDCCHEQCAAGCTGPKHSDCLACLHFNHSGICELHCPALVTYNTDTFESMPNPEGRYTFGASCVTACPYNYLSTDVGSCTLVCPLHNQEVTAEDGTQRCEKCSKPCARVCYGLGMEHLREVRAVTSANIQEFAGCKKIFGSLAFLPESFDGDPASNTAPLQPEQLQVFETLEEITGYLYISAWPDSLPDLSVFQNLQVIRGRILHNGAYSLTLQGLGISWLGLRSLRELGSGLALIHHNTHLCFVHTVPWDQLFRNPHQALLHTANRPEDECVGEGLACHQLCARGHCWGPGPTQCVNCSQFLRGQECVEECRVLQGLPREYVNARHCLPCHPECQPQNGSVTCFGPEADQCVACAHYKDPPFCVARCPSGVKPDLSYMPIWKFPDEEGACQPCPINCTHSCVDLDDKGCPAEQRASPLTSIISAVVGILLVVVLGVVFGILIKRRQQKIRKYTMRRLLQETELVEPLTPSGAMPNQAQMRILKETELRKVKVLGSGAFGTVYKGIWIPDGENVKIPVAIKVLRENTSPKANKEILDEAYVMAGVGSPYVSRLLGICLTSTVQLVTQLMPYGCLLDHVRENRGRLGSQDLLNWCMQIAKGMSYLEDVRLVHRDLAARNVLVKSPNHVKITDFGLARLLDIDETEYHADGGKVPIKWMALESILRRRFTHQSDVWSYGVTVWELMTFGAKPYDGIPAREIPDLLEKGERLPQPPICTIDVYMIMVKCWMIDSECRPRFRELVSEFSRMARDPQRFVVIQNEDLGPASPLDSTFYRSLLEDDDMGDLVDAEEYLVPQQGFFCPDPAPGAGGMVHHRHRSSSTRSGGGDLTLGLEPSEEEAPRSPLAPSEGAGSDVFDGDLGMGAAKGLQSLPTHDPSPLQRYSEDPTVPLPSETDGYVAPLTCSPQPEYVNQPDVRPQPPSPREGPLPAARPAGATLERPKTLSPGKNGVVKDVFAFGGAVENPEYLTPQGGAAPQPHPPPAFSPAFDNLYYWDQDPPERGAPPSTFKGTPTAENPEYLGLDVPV
T10 sequence (P07949 29-1114): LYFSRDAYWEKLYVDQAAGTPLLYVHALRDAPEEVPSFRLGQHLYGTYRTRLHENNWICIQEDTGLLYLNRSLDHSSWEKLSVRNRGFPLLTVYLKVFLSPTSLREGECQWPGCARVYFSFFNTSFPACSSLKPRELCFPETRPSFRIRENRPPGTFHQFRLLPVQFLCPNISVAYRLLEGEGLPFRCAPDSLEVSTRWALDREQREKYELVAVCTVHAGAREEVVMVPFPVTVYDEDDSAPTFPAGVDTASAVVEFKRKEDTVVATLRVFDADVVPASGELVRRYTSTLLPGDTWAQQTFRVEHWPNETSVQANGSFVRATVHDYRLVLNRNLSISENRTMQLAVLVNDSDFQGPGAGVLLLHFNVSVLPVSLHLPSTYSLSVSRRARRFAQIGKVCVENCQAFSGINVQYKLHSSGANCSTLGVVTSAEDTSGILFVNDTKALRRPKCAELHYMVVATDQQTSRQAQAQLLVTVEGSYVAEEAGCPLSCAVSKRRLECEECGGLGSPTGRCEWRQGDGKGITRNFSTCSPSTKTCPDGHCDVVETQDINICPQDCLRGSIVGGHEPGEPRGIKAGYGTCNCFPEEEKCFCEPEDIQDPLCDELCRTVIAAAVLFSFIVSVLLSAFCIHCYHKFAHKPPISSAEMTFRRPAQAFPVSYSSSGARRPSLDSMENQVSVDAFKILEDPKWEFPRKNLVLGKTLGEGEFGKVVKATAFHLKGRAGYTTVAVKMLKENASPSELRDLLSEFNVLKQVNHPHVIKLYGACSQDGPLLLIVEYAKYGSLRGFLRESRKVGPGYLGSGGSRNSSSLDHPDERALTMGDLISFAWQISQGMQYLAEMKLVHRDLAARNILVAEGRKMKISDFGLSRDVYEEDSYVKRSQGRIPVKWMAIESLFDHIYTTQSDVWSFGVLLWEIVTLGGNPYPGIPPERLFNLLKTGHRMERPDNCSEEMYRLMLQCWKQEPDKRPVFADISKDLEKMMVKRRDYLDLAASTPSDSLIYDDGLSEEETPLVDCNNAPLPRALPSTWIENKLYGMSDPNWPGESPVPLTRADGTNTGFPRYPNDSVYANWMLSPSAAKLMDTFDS
T4 sequence (P35968 20-1356, species assumed): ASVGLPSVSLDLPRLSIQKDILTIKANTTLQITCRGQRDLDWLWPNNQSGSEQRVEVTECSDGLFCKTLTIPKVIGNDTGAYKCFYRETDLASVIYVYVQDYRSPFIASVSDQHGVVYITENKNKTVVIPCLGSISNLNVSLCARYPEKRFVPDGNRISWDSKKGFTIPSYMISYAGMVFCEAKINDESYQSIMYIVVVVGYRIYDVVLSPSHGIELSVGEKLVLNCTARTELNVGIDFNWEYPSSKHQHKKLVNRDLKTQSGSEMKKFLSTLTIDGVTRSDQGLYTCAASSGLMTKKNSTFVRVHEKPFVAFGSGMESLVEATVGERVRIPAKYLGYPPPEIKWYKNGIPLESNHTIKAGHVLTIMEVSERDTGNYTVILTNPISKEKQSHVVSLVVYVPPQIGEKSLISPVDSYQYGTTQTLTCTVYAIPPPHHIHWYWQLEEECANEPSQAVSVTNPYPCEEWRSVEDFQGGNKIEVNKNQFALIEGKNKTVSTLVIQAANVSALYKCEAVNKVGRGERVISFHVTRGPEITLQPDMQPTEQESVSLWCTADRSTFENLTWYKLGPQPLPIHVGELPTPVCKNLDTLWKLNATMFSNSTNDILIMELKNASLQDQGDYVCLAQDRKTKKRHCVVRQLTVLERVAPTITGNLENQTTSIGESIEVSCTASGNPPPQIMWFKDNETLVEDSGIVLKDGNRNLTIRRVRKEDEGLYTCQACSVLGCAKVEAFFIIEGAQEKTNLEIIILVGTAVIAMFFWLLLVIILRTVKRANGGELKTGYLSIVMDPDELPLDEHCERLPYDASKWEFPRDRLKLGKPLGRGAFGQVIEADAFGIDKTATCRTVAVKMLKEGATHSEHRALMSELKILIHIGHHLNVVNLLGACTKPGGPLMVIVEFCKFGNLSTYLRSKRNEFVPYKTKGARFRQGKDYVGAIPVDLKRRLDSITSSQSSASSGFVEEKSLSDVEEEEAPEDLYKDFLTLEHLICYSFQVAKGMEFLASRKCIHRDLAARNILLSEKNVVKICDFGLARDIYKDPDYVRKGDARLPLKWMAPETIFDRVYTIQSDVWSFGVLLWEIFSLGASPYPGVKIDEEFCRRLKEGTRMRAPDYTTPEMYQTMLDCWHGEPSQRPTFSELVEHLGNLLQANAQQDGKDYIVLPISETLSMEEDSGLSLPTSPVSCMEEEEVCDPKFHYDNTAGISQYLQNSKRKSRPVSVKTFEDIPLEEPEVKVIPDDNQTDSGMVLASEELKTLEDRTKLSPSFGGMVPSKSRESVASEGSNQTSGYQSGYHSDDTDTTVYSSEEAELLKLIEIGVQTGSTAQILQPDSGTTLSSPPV
T9 sequence (P08631 whole entry, the tested form may be a part): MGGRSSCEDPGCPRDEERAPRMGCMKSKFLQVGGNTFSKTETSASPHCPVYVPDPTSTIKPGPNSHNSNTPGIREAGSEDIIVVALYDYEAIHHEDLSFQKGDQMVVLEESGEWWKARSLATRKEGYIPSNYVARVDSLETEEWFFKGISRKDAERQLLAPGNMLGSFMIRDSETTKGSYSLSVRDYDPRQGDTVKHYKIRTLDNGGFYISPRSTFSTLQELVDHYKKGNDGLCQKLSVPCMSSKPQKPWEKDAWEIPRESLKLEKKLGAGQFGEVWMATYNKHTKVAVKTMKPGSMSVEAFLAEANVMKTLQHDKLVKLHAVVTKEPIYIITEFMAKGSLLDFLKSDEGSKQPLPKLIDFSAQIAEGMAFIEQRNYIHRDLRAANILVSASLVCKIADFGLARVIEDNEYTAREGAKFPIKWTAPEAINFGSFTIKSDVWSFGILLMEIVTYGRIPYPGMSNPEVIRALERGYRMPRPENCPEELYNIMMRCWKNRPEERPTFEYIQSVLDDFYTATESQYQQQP

| Structure (SMILES) | IC50 [1] [µM] | IC50 [2] [µM] | IC50 [3] [µM] | IC50 [4] [µM] | IC50 [5] [µM] | IC50 [6] [µM] | IC50 [7] [µM] | IC50 [8] [µM] | IC50 [9] [µM] | IC50 [10] [µM] | IC50 [11] [µM] | IC50 [12] [µM] |
| --- | --- | --- | --- | --- | --- | --- | --- | --- | --- | --- | --- | --- |
| COc1cc(Nc2ncnc(Nc3ccc(N)cc3)n2)cc(OC)c1OC [Compound 92] | 1.09 to 6.51 | > 12.2 | > 12.2 | 1.09 to 6.51 | 6.51 to 9.5 | 6.51 to 9.5 | 1.09 to 6.51 | 1.09 to 6.51 | > 12.2 | > 12.2 | 6.51 to 9.5 | – |
| COc1cc(Nc2ncnc(Nc3ccc(O)cc3Cl)n2)cc(OC)c1OC [Compound 77] | < 0.991 | 0.991 to 5.94 | 8.67 to 11.1 | < 0.991 | 0.991 to 5.94 | > 11.1 | > 11.1 | < 0.991 | > 11.1 | 0.991 to 5.94 | 0.991 to 5.94 | – |
| COc1cc(Nc2ncnc(Nc3cccc(O)c3)n2)cc(OC)c1OC [Compound 78] | < 1.08 | < 1.08 | 1.08 to 6.5 | < 1.08 | < 1.08 | > 12.2 | > 12.2 | < 1.08 | 1.08 to 6.5 | < 1.08 | < 1.08 | – |
| COc1ccc(Nc2ncnc(Nc3cc(OC)c(OC)c(OC)c3)n2)cc1 [Compound 89] | 1.04 to 6.26 | 1.04 to 6.26 | > 11.7 | < 1.04 | < 1.04 | > 11.7 | > 11.7 | < 1.04 | > 11.7 | 1.04 to 6.26 | > 11.7 | – |
| COc1cc(Nc2ncnc(Nc3ccc(Cl)cc3)n2)cc(OC)c1OC [Compound 72] | – | – | > 11.6 | < 1.03 | < 1.03 | > 11.6 | 9.02 to 11.6 | < 1.03 | – | < 1.03 | < 1.03 | 1.03 to 6.19 |
| COc1cc(Nc2ncnc(Nc3ccccc3F)n2)cc(OC)c1OC [Compound 65] | 1.08 to 6.46 | > 12.1 | > 12.1 | 1.08 to 6.46 | 1.08 to 6.46 | > 12.1 | > 12.1 | < 1.08 | > 12.1 | 1.08 to 6.46 | > 12.1 | – |
| COc1cc(Nc2ncnc(Nc3cccc(Br)c3)n2)cc(OC)c1OC [Compound 75] | < 0.925 | 0.925 to 5.55 | > 10.4 | 0.925 to 5.55 | > 10.4 | > 10.4 | 8.1 to 10.4 | > 10.4 | > 10.4 | > 10.4 | 8.1 to 10.4 | – |
| COc1cc(Nc2ncnc(Nc3ccccc3C)n2)cc(OC)c1OC [Compound 67] | < 1.09 | 9.53 to 12.2 | > 12.2 | 1.09 to 6.53 | 9.53 to 12.2 | > 12.2 | > 12.2 | 1.09 to 6.53 | > 12.2 | > 12.2 | > 12.2 | – |
| COc1cc(Nc2ncnc(Nc3ccc(F)c(Cl)c3)n2)cc(OC)c1OC [Compound 61] | < 0.986 | < 0.986 | > 11.1 | < 0.986 | < 0.986 | – | > 11.1 | < 0.986 | > 11.1 | > 11.1 | > 11.1 | – |
| COc1cc(Nc2ncnc(Nc3ccc4cn[nH]c4c3)n2)cc(OC)c1OC [Compound 70] | 1.02 to 6.1 | > 11.4 | 8.9 to 11.4 | < 1.02 | < 1.02 | > 11.4 | > 11.4 | < 1.02 | > 11.4 | 1.02 to 6.1 | 1.02 to 6.1 | – |
| COc1cc(Nc2ncnc(Nc3ccc(N(C)C)cc3)n2)cc(OC)c1OC [Compound 27] | 1.01 to 6.05 | 1.01 to 6.05 | > 11.4 | < 1.01 | < 1.01 | – | 8.83 to 11.4 | > 11.4 | > 11.4 | 1.01 to 6.05 | 1.01 to 6.05 | – |
| COc1cc(Nc2ncnc(Nc3ccc(Br)cc3)n2)cc(OC)c1OC [Compound 82] | – | – | > 10.4 | < 0.925 | < 0.925 | > 10.4 | > 10.4 | < 0.925 | – | 0.925 to 5.55 | 0.925 to 5.55 | – |

Now from value to compound:

| IC50 [1] [µM] | IC50 [2] [µM] | IC50 [3] [µM] | IC50 [4] [µM] | IC50 [5] [µM] | IC50 [6] [µM] | IC50 [7] [µM] | IC50 [8] [µM] | IC50 [9] [µM] | IC50 [10] [µM] | IC50 [11] [µM] | IC50 [12] [µM] | Structure (SMILES) |
| --- | --- | --- | --- | --- | --- | --- | --- | --- | --- | --- | --- | --- |
| > 10.4 | 8.06 to 10.4 | 0.921 to 5.52 | < 0.921 | < 0.921 | > 10.4 | > 10.4 | < 0.921 | > 10.4 | < 0.921 | 0.921 to 5.52 | – | COc1cc(Nc2ncnc(-n3cc(CC(N)=O)c4ccccc43)n2)cc(OC)c1OC [Compound 353] |
| > 11.9 | > 11.9 | > 11.9 | < 1.06 | 6.36 to 9.27 | > 11.9 | 1.06 to 6.36 | 6.36 to 9.27 | > 11.9 | 1.06 to 6.36 | < 1.06 | – | COC(=O)c1cccc(Nc2ncnc(Nc3cc(-c4ccco4)n[nH]3)n2)c1 [Compound 344] |
| 9.32 to 12 | > 12 | 6.39 to 9.32 | < 1.07 | 1.07 to 6.39 | > 12 | 1.07 to 6.39 | 6.39 to 9.32 | > 12 | 1.07 to 6.39 | 1.07 to 6.39 | – | O=C1OCc2ccc(Nc3ncnc(Nc4cc(-c5ccco5)n[nH]4)n3)cc21 [Compound 364] |
| 8.65 to 11.1 | 0.989 to 5.93 | > 11.1 | < 0.989 | 0.989 to 5.93 | > 11.1 | 8.65 to 11.1 | 0.989 to 5.93 | 8.65 to 11.1 | 0.989 to 5.93 | 0.989 to 5.93 | – | COc1cc(Nc2ncnc(Nc3cnc4ccccc4c3)n2)cc(OC)c1OC [Compound 99] |
| > 11.4 | > 11.4 | > 11.4 | 6.05 to 8.83 | > 11.4 | – | 6.05 to 8.83 | 8.83 to 11.4 | > 11.4 | 6.05 to 8.83 | > 11.4 | 6.05 to 8.83 | COc1cc(Nc2ncnc(NC(=O)Nc3ccccc3)n2)cc(OC)c1OC [Compound 852] |
| < 1.01 | < 1.01 | > 11.3 | < 1.01 | 8.81 to 11.3 | > 11.3 | > 11.3 | 1.01 to 6.04 | > 11.3 | > 11.3 | > 11.3 | – | COc1cc(Nc2ncnc(Nc3cc(C)c(O)cc3C)n2)cc(OC)c1OC [Compound 94] |
| > 12.4 | > 12.4 | 6.62 to 9.66 | < 1.1 | < 1.1 | > 12.4 | 1.1 to 6.62 | < 1.1 | > 12.4 | < 1.1 | < 1.1 | – | NC(=O)c1ccc(Nc2ncnc(Nc3cc(-c4ccco4)n[nH]3)n2)cc1 [Compound 341] |
| < 0.787 | 0.787 to 4.72 | 0.787 to 4.72 | < 0.787 | < 0.787 | 0.787 to 4.72 | 4.72 to 6.88 | < 0.787 | > 8.85 | – | < 0.787 | 4.72 to 6.88 | COc1cc(Nc2ncnc(-n3c(Nc4ccc5[nH]ccc5c4)nc4ccccc43)n2)cc(OC)c1OC [Compound 376] |
| < 0.827 | < 0.827 | > 9.31 | < 0.827 | < 0.827 | > 9.31 | > 9.31 | < 0.827 | > 9.31 | – | < 0.827 | > 9.31 | COc1cc(Nc2ncnc(-n3c(NCc4ccccc4)nc4ccccc43)n2)cc(OC)c1OC [Compound 371] |
